According to patent US8222260B2, “Substituted 6-anilinopurine derivatives as inhibitors of cytokinin oxidase/dehydrogenase and preparations containing these derivatives” (Univerzita Palackego V Olomouci, priority 2007, dated 2012):

How the values were obtained:
[1] = system: Amaranthus caudatus cotyledon/hypocotyl explants; assay: Amaranthus bioassay (betacyanin content); format: cell-based, Amaranthus caudatus var. atropurpurea; details: at the concentration with highest activity, relative to 10^−5 M kinetin
In short: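 Etiolated A. caudatus cotyledon/hypocotyl explants (72 h seedlings, roots removed) incubated 48 h at 25 °C in darkness on medium with phosphate buffer pH 6.8, tyrosine and test compound. Betacyanin extracted in acetic acid, quantified as A537−A620.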

[2] = system: breast carcinoma cell line MCF-7; assay: Calcein AM cytotoxicity assay; format: cell-based, human; details: Homo sapiens, MCF7, 72 hours
[3] = system: osteosarcoma cell line HOS; assay: Calcein AM cytotoxicity assay; format: cell-based, human; details: Homo sapiens, 72 hours
In short: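 Cells seeded at 2.500-30.000 per well, pre-incubated 24 h, then exposed 72 h at 37 °C to six 3-fold dilutions (top 166.6 μM), in triplicate. Calcein AM added to 1 μg/ml for 1 h; fluorescence gives growth inhibition, GI50 taken from dose-response curves.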

NIH-3T3 (fibroblasts) = assay: Calcein AM cytotoxicity assay; format: cell-based, Mouse; details: Mus musculus, NIH3T3, 72 hours
In short: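 Cells seeded at 2.500-30.000 per well, pre-incubated 24 hours, then exposed to compound (usually six 3-fold dilutions, triplicates) for 72 hours at 37° C, 5% CO2; NIH-3T3 grown in DMEM with 10% fetal calf serum. Calcein AM added at 1 μg/ml final, fluorescence read after 1 hour. GI calculated as blank-corrected fluorescence relative to untreated control.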

| SMILES | Activity (%) [10^−5 mol · l^−1 K = 100%] [1] | GI50 [2] | GI50 [3] | GI50 (NIH-3T3 (fibroblasts)) |
| --- | --- | --- | --- | --- |
| Fc1cccc(Nc2nc(S)nc3[nH]cnc23)c1 [Compound 83] | 133.5% | > 167 µM | > 167 µM | > 167 µM |
| Oc1cccc(Nc2nc(Cl)nc3nc[nH]c23)c1 [Compound 9, 2-Chloro-6-(3-hydroxyanilino)purine] | 115.4% | > 167 µM | > 167 µM | > 167 µM |
| Clc1ccc(Nc2nc(Cl)nc3[nH]cnc23)cc1 [Compound 4] | 107% | > 167 µM | > 167 µM | > 167 µM |
| COc1cccc(Nc2nc(F)nc3nc[nH]c23)c1 [Compound 51, 2-Fluoro-6-(3-methoxyanilino)purine] | 117.2% | > 167 µM | > 167 µM | > 167 µM |
| Clc1cccc(Nc2nc(Cl)nc3nc[nH]c23)c1 [Compound 3, 2-Chloro-6-(3-chloroanilino)purine] | 166% | > 167 µM | > 167 µM | > 167 µM |
| COc1cccc(Nc2nc(Cl)nc3nc[nH]c23)c1 [Compound 12, 2-Chloro-6-(3-methoxyanilino)purine] | 132.3% | > 167 µM | > 167 µM | > 167 µM |
| Nc1nc(Nc2cccc(Cl)c2)c2nc[nH]c2n1 [Compound 66] | 122% | > 167 µM | > 167 µM | > 167 µM |
| Fc1nc(Nc2cccc(Cl)c2)c2nc[nH]c2n1 [Compound 42] | 121% | > 167 µM | > 167 µM | > 167 µM |
| Nc1nc(Nc2cccc(O)c2)c2nc[nH]c2n1 [Compound 72] | 119.8% | > 167 µM | > 167 µM | > 167 µM |
| Oc1cccc(Nc2nc(F)nc3[nH]cnc23)c1 [Compound 48] | 100.3% | > 167 µM | > 167 µM | > 167 µM |
| Fc1nc(Nc2ccccc2)c2nc[nH]c2n1 [Compound 40] | 107% | > 167 µM | > 167 µM | > 167 µM |
| Fc1cccc(Nc2nc(Cl)nc3nc[nH]c23)c1 [Compound 6, 2-Chloro-6-(3-fluoroanilino)purine] | 120% | > 167 µM | > 167 µM | > 167 µM |
| Clc1nc(Nc2ccccc2)c2[nH]cnc2n1 [Compound 1, 2-Chloro-6-anilinopurine] | – | > 167 µM | > 167 µM | > 167 µM |
| c1coc(CNc2ncnc3nc[nH]c23)c1 [Kinetin, 6-furfurylaminopurine, reference compound] | 100% | > 167 µM | > 167 µM | > 167 µM |
